Measured values reported in patent US10221171B2, “Oxathiazole thiazolium Hsp 70 inhibitors” (THE REGENTS OF THE UNIVERSITY OF CALIFORNIA, priority 2015, dated 2019).
Read-outs that look alike come from different tables or passages of the source.

Columns and labels:
Format in all cases: cell-based
MCF-7 = assay: MTT cell viability assay, MCF-7; conditions: Homo sapiens, read-out: IC50/μM MCF-7
Protocol: (§1) Cells were then treated with compound at various concentrations in 0.2 mL media. After the 72-hour incubation period, cells were washed in PBS (3×100 μL), and 10 μL MTT reagent was added with 100 μL fresh media. Cells were then incubated for 4 hr in a humidified chamber at 37° C. with 5% CO2. Insoluble formazan crystals were solubilized by addition of 0.1 mL detergent solution (4 hr at room temp., dark). Resulting colored solutions were then quantified at an absorbance of 570 nm.

MDA-MB-231 = assay: MTT cell viability assay, MDA-MB-231; conditions: Homo sapiens
Protocol: as §1

MEF (C57BL/6) = assay: MTT cell viability assay, MEF (C57BL/6); conditions: Mus musculus
Protocol: as §1

[1] = MTT, 72-hour incubation, read-out: IC50/μM MEF (C57BL/6)
[2] = MCF7, 72 h, MTT, 72-hour incubation
[3] = MDA-MB-231, 72 h, 72-hour incubation
[4] = 72 h, read-out: IC50/μM MEF (C57BL/6), MTT, 72-hour incubation

SMILES | IC50 (MCF-7; MCF7, MTT, 72-hour incubation) [µM] | IC50 (MDA-MB-231; MDA-MB-231, 72-hour incubation) [µM] | IC50 (MEF (C57BL/6); [1]) [µM] | IC50 (MCF-7; [2]) [µM] | IC50 (MDA-MB-231; [3]) [µM] | IC50 (MEF (C57BL/6); [4]) [µM] | IC50 (MCF-7; MCF7, 72 h) [µM]
CCn1c(=O)/c(=C2\Sc3cc(Br)ccc3N2C)s/c1=C\c1scc[n+]1Cc1ccccc1Cl [JG-289] | 0.27 ± 0.02 | 0.12 ± 0.02 | 0.96 ± 0.05 |  |  |  | 
CCn1c(=O)/c(=C2\Sc3cc(Br)ccc3N2C)s/c1=C\c1scc[n+]1Cc1ccccc1C [JG-290] | 0.16 ± 0.01 | 0.21 ± 0.02 | 1.7 ± 0.1 |  |  |  | 
CCn1c(=O)/c(=C2\Sc3cc(Br)ccc3N2C)s/c1=C\c1scc[n+]1Cc1ccccc1OC(F)(F)F [JG-291] | 0.14 ± 0.01 | 0.14 ± 0.01 | 2.3 ± 0.1 |  |  |  | 
CCn1c(=O)/c(=C2\Sc3cc(Br)ccc3N2C)s/c1=C\c1scc[n+]1Cc1ccccc1C(F)(F)F [JG-292] | 0.12 ± 0.01 | 0.18 ± 0.02 | 2.7 ± 0.1 |  |  |  | 
CCn1c(=O)/c(=C2\Sc3cc(Br)ccc3N2C)s/c1=C\c1scc[n+]1Cc1ccsc1C(=O)OC [JG-293] | 0.3 ± 0.03 | 0.14 ± 0.03 | 3.1 ± 0.3 |  |  |  | 
CCc1ccc2c(c1)S/C(=c1/s/c(=C\c3scc[n+]3Cc3ccccc3Cl)n(CC)c1=O)N2C [JG-295] | 0.084 ± 0.006 | 0.093 ± 0.005 | 0.48 ± 0.01 |  |  |  | 
CCc1ccc2c(c1)S/C(=c1/s/c(=C\c3scc[n+]3Cc3ccccc3C)n(CC)c1=O)N2C [JG-296] | 0.1 ± 0.01 | 0.14 ± 0.01 | 0.61 ± 0.02 |  |  |  | 
CCc1ccc2c(c1)S/C(=c1/s/c(=C\c3scc[n+]3Cc3ccccc3OC(F)(F)F)n(CC)c1=O)N2C [JG-297] | 0.08 ± 0.005 | 0.097 ± 0.006 | 0.41 ± 0.01 |  |  |  | 
CCc1ccc2c(c1)S/C(=c1/s/c(=C\c3scc[n+]3Cc3ccccc3C(F)(F)F)n(CC)c1=O)N2C [JG-298] | 0.052 ± 0.004 | 0.11 ± 0.01 | 0.43 ± 0.02 |  |  |  | 
CCc1ccc2c(c1)S/C(=c1/s/c(=C\c3scc[n+]3Cc3ccsc3C(=O)OC)n(CC)c1=O)N2C [JG-299] | 0.083 ± 0.007 | 0.071 ± 0.009 | 0.92 ± 0.04 |  |  |  | 
CCn1c(=O)/c(=C2\Sc3cc(OC)ccc3N2C)s/c1=C\c1scc[n+]1Cc1ccccc1Cl [JG-301] |  |  |  | 0.048 ± 0.003 | 0.033 ± 0.005 | 0.66 ± 0.01 | 
CCn1c(=O)/c(=C2\Sc3cc(OC)ccc3N2C)s/c1=C\c1scc[n+]1Cc1ccccc1C [JG-302] | 0.12 ± 0.01 | 0.11 ± 0.01 | 1.8 ± 0.05 |  |  |  | 
CCn1c(=O)/c(=C2\Sc3cc(OC)ccc3N2C)s/c1=C\c1scc[n+]1Cc1ccccc1OC(F)(F)F [JG-303] |  |  | 0.7 ± 0.01 |  | 0.053 ± 0.005 |  | 0.07 ± 0.003
CCn1c(=O)/c(=C2\Sc3cc(OC)ccc3N2C)s/c1=C\c1scc[n+]1Cc1ccccc1C(F)(F)F [JG-304] | 0.12 ± 0.01 | 0.1 ± 0.02 | 1.4 ± 0.06 |  |  |  | 
CCn1c(=O)/c(=C2\Sc3cc(OC)ccc3N2C)s/c1=C\c1scc[n+]1Cc1ccsc1C(=O)OC [JG-305] | 0.12 ± 0.01 | 0.16 ± 0.01 | 1 ± 0.1 |  |  |  | 
CCn1c(=O)/c(=C2\Sc3cc(OC)ccc3N2C)s/c1=C\c1scc[n+]1Cc1ccc(C(F)(F)F)o1 [JG-306] | 0.16 ± 0.02 | 0.1 ± 0.01 | > 10 |  |  |  | 
CCn1c(=O)/c(=C2\Sc3cc(Cl)ccc3N2C)s/c1=C\c1scc[n+]1Cc1ccccc1Br [JG-307] | 0.12 ± 0.01 | 0.13 ± 0.02 | 1.1 ± 0.1 |  |  |  | 
CCn1c(=O)/c(=C2\Sc3cc(F)ccc3N2C)s/c1=C\c1scc[n+]1Cc1ccccc1Br [JG-308] | 0.16 ± 0.02 | 0.19 ± 0.02 | 0.6 ± 0.06 |  |  |  | 
CCn1c(=O)/c(=C2\Sc3cc(SC)ccc3N2C)s/c1=C\c1scc[n+]1Cc1ccccc1Cl [JG-309] |  |  |  | 0.15 ± 0.01 | 0.13 ± 0.01 | 0.75 ± 0.05 | 
CCn1c(=O)/c(=C2\Sc3cc(SC)ccc3N2C)s/c1=C\c1scc[n+]1Cc1ccccc1C [JG-310] | 0.23 ± 0.04 | 0.11 ± 0.01 | 2.2 ± 0.2 |  |  |  | 
CCn1c(=O)/c(=C2\Sc3cc(SC)ccc3N2C)s/c1=C\c1scc[n+]1Cc1ccsc1C(=O)OC [JG-313] | 0.2 ± 0.01 | 0.16 ± 0.02 | 1.4 ± 0.1 |  |  |  | 

SMILES | IC50 (MCF-7; MCF7, MTT, 72-hour incubation) [µM] | IC50 (MDA-MB-231; MDA-MB-231, 72-hour incubation) [µM] | IC50 (MEF (C57BL/6); [1]) [µM] | IC50 (MCF-7; [2]) [µM] | IC50 (MDA-MB-231; [3]) [µM] | IC50 (MEF (C57BL/6); [4]) [µM] | IC50 (MCF-7; MCF7, 72 h) [µM]
CCn1c(=O)/c(=C2\Sc3cc(SC)ccc3N2C)s/c1=C\c1scc[n+]1Cc1ccc(C(F)(F)F)o1 [JG-314] | 0.57 ± 0.08 | 0.25 ± 0.04 | 4.8 ± 0.9 |  |  |  | 
CCn1c(=O)/c(=C2\Sc3cc(F)ccc3N2C)s/c1=C\c1scc[n+]1Cc1ccccc1C(=O)O [JG-315] | > 20 | > 20 | > 10 |  |  |  | 
CCn1c(=O)/c(=C2\Sc3cc(Cl)ccc3N2C)s/c1=C\c1scc[n+]1Cc1ccccc1C(=O)O [JG-316] | > 20 | > 20 | > 10 |  |  |  | 
CCn1c(=O)/c(=C2\Sc3cc(Br)ccc3N2C)s/c1=C\c1scc[n+]1C(C)c1ccccc1 (stereo not drawn) [JG-317] | 0.35 ± 0.08 | 0.14 ± 0.02 | 2.7 ± 0.1 |  |  |  | 
CCn1c(=O)/c(=C2\Sc3cc(C)ccc3N2C)s/c1=C\c1scc[n+]1C(C)c1ccccc1 (stereo not drawn) [JG-318] | 0.16 ± 0.03 | 0.11 ± 0.01 | 1.1 ± 0.1 |  |  |  | 
CCn1c(=O)/c(=C2\Sc3cc(C(C)C)ccc3N2C)s/c1=C\c1scc[n+]1C(C)c1ccccc1 (stereo not drawn) [JG-319] | 0.13 ± 0.01 | 0.26 ± 0.03 | 1.7 ± 0.04 |  |  |  | 
CCc1ccc2c(c1)S/C(=c1/s/c(=C\c3scc[n+]3C(C)c3ccccc3)n(CC)c1=O)N2C (stereo not drawn) [JG-320] | 0.1 ± 0.01 | 0.3 ± 0.05 | 1.3 ± 0.04 |  |  |  | 
CCn1c(=O)/c(=C2\Sc3cc(SC)ccc3N2C)s/c1=C\c1scc[n+]1C(C)c1ccccc1 (stereo not drawn) [JG-321] | 0.23 ± 0.03 | 0.14 ± 0.01 | 1.8 ± 0.1 |  |  |  | 
CCn1c(=O)/c(=C2\Sc3cc(OC)ccc3N2C)s/c1=C\c1scc[n+]1C(C)c1ccccc1 (stereo not drawn) [JG-322] | 0.14 ± 0.01 | 0.15 ± 0.01 | 1.7 ± 0.1 |  |  |  | 
CCn1c(=O)/c(=C2\Sc3cc(C(C)C)ccc3N2C)s/c1=C\c1scc[n+]1Cc1ccccc1Cl [JG-323] | 0.12 ± 0.01 | 0.19 ± 0.01 | 0.53 ± 0.02 |  |  |  | 
CCn1c(=O)/c(=C2\Sc3cc(C(C)C)ccc3N2C)s/c1=C\c1scc[n+]1Cc1ccccc1C [JG-324] | 0.17 ± 0.02 | 0.15 ± 0.02 | 1.9 ± 0.1 |  |  |  | 
CCn1c(=O)/c(=C2\Sc3cc(C(C)C)ccc3N2C)s/c1=C\c1scc[n+]1Cc1ccccc1OC(F)(F)F [JG-325] |  |  |  |  | 0.21 ± 0.01 | 0.48 ± 0.02 | 0.09 ± 0.005
CCn1c(=O)/c(=C2\Sc3cc(C(C)C)ccc3N2C)s/c1=C\c1scc[n+]1Cc1ccccc1C(F)(F)F [JG-326] | 0.069 ± 0.005 | 0.06 ± 0.007 | 0.45 ± 0.04 |  |  |  | 
CCn1c(=O)/c(=C2\Sc3cc(C(C)C)ccc3N2C)s/c1=C\c1scc[n+]1Cc1ccsc1C(=O)OC [JG-327] | 0.15 ± 0.02 | 0.17 ± 0.02 | 0.7 ± 0.03 |  |  |  | 
CCn1c(=O)/c(=C2\Sc3cc(C(C)C)ccc3N2C)s/c1=C\c1scc[n+]1Cc1ccc(C(F)(F)F)o1 [JG-328] | 0.14 ± 0.02 | 0.23 ± 0.02 | 0.7 ± 0.03 |  |  |  | 
CCn1c(=O)/c(=C2\Sc3cc(Cl)ccc3N2C)s/c1=C\c1scc[n+]1Cc1ccccc1CO [JG-329] | 0.58 ± 0.1 | 0.39 ± 0.06 | 7.3 ± 2.1 |  |  |  | 
CCn1c(=O)/c(=C2\Sc3cc(F)ccc3N2C)s/c1=C\c1scc[n+]1Cc1ccccc1CO [JG-330] | 1.08 ± 0.14 | 1.93 ± 0.27 | > 10 |  |  |  | 
CCn1c(=O)/c(=C2\Sc3cc(Cl)ccc3N2C)s/c1=C\c1scc[n+]1Cc1ccccc1C(=O)OC [JG-331] |  |  |  | 0.17 ± 0.02 | 0.17 ± 0.02 | 2.9 ± 0.1 | 
CCn1c(=O)/c(=C2\Sc3cc(F)ccc3N2C)s/c1=C\c1scc[n+]1Cc1ccccc1C(=O)OC [JG-332] | 0.22 ± 0.03 | 0.26 ± 0.03 | 2 ± 0.1 |  |  |  | 
CCn1c(=O)/c(=C2\Sc3cc(Cl)ccc3N2C)s/c1=C\c1scc[n+]1Cc1c(C)cccc1C [JG-333] | 0.35 ± 0.04 | 0.19 ± 0.02 | 1.1 ± 0.1 |  |  |  | 
CCn1c(=O)/c(=C2\Sc3cc(F)ccc3N2C)s/c1=C\c1scc[n+]1Cc1c(C)cccc1C [JG-334] | 0.32 ± 0.03 | 0.38 ± 0.04 | 1.4 ± 0.1 |  |  |  | 
